Measurements reported in PubChem BioAssay (NCI).
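The concentration for 50% growth inhibition is given as GI50. The concentration for full growth arrest is given as TGI.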

Tests used:
Test in all cases: NCI-60 cell line screen, 384-well format
786-0 renal = test system: 786-0 renal
A498 renal = test system: A498 renal
A549 NSCLC = test system: A549 NSCLC
ACHN renal = test system: ACHN renal
BT-549 breast = test system: BT-549 breast
CAKI-1 renal = test system: CAKI-1 renal
CCRF-CEM leukemia = test system: CCRF-CEM leukemia
COLO 205 colon = test system: COLO 205 colon
DU-145 prostate = test system: DU-145 prostate
EKVX NSCLC = test system: EKVX NSCLC
HCC-2998 colon = test system: HCC-2998 colon
HCT-116 colon = test system: HCT-116 colon
HCT-15 colon = test system: HCT-15 colon
HL-60(TB) leukemia = test system: HL-60(TB) leukemia
HOP-62 NSCLC = test system: HOP-62 NSCLC
HOP-92 NSCLC = test system: HOP-92 NSCLC
HS 578T breast = test system: HS 578T breast
HT29 colon = test system: HT29 colon
IGROV1 ovarian = test system: IGROV1 ovarian
K-562 leukemia = test system: K-562 leukemia
KM12 colon = test system: KM12 colon
LOX IMVI melanoma = test system: LOX IMVI melanoma
M14 melanoma = test system: M14 melanoma
MALME-3M melanoma = test system: MALME-3M melanoma
MCF7 breast = test system: MCF7 breast
MDA-MB-231 breast = test system: MDA-MB-231 breast
MDA-MB-435 melanoma = test system: MDA-MB-435 melanoma
MDA-MB-468 breast = test system: MDA-MB-468 breast
MOLT-4 leukemia = test system: MOLT-4 leukemia
NCI-H226 lung = test system: NCI-H226 lung
NCI-H23 lung = test system: NCI-H23 lung
NCI-H322M lung = test system: NCI-H322M lung
NCI-H460 NSCLC = test system: NCI-H460 NSCLC
NCI-H522 lung = test system: NCI-H522 lung
NCI/ADR-RES ovarian = test system: NCI/ADR-RES ovarian
OVCAR-3 ovarian = test system: OVCAR-3 ovarian
OVCAR-4 ovarian = test system: OVCAR-4 ovarian
OVCAR-5 ovarian = test system: OVCAR-5 ovarian
OVCAR-8 ovarian = test system: OVCAR-8 ovarian
PC-3 prostate = test system: PC-3 prostate
RPMI-8226 leukemia = test system: RPMI-8226 leukemia
RXF 393 renal = test system: RXF 393 renal
SF-268 CNS = test system: SF-268 CNS
SF-295 CNS = test system: SF-295 CNS
SF-539 CNS = test system: SF-539 CNS
SK-MEL-2 melanoma = test system: SK-MEL-2 melanoma
SK-MEL-28 melanoma = test system: SK-MEL-28 melanoma
SK-MEL-5 melanoma = test system: SK-MEL-5 melanoma
SK-OV-3 ovarian = test system: SK-OV-3 ovarian
SN12C renal = test system: SN12C renal
SNB-19 CNS = test system: SNB-19 CNS
SNB-75 CNS = test system: SNB-75 CNS
SW-620 colon = test system: SW-620 colon
T-47D breast = test system: T-47D breast
TK-10 renal = test system: TK-10 renal
U251 glioblastoma = test system: U251 glioblastoma
UACC-257 melanoma = test system: UACC-257 melanoma
UACC-62 melanoma = test system: UACC-62 melanoma
UO-31 renal = test system: UO-31 renal

## C=CC(=O)N1CCC(Oc2cc3c(Nc4ccc(Cl)c(Cl)c4F)ncnc3cc2OC)CC1
786-0 renal
  GI50: 1310 nM
  TGI: 4740 nM
A498 renal
  GI50: 137 nM
  TGI: 1950 nM
A549 NSCLC
  GI50: 1240 nM
  TGI: 12000 nM
ACHN renal
  GI50: < 10 nM
  TGI: 11200 nM
BT-549 breast
  GI50: 1110 nM
  TGI: 3990 nM
CAKI-1 renal
  GI50: 198 nM
  TGI: 1700 nM
CCRF-CEM leukemia
  GI50: 1260 nM
  TGI: 2740 nM
COLO 205 colon
  GI50: 4340 nM
  TGI: 18400 nM
DU-145 prostate
  GI50: 879 nM
  TGI: 14600 nM
EKVX NSCLC
  GI50: < 10 nM
  TGI: 2140 nM
HCC-2998 colon
  GI50: 1620 nM
  TGI: 7470 nM
HCT-116 colon
  GI50: 3730 nM
  TGI: 15200 nM
HCT-15 colon
  GI50: 2380 nM
  TGI: 12700 nM
HL-60(TB) leukemia
  GI50: 1940 nM
  TGI: 3490 nM
HOP-62 NSCLC
  GI50: 2270 nM
  TGI: 8530 nM
HOP-92 NSCLC
  GI50: 1390 nM
  TGI: 4020 nM
HS 578T breast
  GI50: 1040 nM
  TGI: 2460 nM
HT29 colon
  GI50: 2420 nM
  TGI: 11900 nM
IGROV1 ovarian
  GI50: < 10 nM
  TGI: 817 nM
K-562 leukemia
  GI50: 1270 nM
  TGI: 2880 nM
KM12 colon
  GI50: 3070 nM
  TGI: 12700 nM
LOX IMVI melanoma
  GI50: 1620 nM
  TGI: 3470 nM
M14 melanoma
  GI50: 3010 nM
  TGI: 15400 nM
MALME-3M melanoma
  GI50: 2520 nM
  TGI: 11200 nM
MCF7 breast
  GI50: 690 nM
  TGI: 14100 nM
MDA-MB-231 breast
  GI50: 2100 nM
  TGI: 14000 nM
MDA-MB-435 melanoma
  GI50: 2640 nM
  TGI: 10900 nM
MDA-MB-468 breast
  GI50: < 10 nM
  TGI: < 10 nM
MOLT-4 leukemia
  GI50: 430 nM
  TGI: 1880 nM
NCI-H226 lung
  GI50: 813 nM
  TGI: 13200 nM
NCI-H23 lung
  GI50: 1780 nM
  TGI: 6130 nM
NCI-H322M lung
  GI50: < 10 nM
  TGI: 4150 nM
NCI-H460 NSCLC
  GI50: 2870 nM
  TGI: 13700 nM
NCI-H522 lung
  GI50: < 10 nM
  TGI: 16.2 nM
NCI/ADR-RES ovarian
  GI50: 1100 nM
  TGI: 3210 nM
OVCAR-3 ovarian
  GI50: 244 nM
  TGI: 3210 nM
OVCAR-4 ovarian
  GI50: 363 nM
  TGI: 5420 nM
OVCAR-5 ovarian
  GI50: 1230 nM
  TGI: 11800 nM
OVCAR-8 ovarian
  GI50: 1950 nM
  TGI: 12200 nM
PC-3 prostate
  GI50: 1960 nM
  TGI: 10400 nM
RPMI-8226 leukemia
  GI50: 1250 nM
  TGI: 3260 nM
RXF 393 renal
  GI50: 230 nM
  TGI: 1310 nM
SF-268 CNS
  GI50: 1190 nM
  TGI: 5580 nM
SF-295 CNS
  GI50: 4150 nM
  TGI: 14900 nM
SF-539 CNS
  GI50: 1360 nM
  TGI: 3560 nM
SK-MEL-2 melanoma
  GI50: 1750 nM
  TGI: 4660 nM
SK-MEL-28 melanoma
  GI50: 14000 nM
  TGI: 27100 nM
SK-MEL-5 melanoma
  GI50: 2980 nM
  TGI: 13300 nM
SK-OV-3 ovarian
  GI50: < 10 nM
  TGI: 1520 nM
SN12C renal
  GI50: 353 nM
  TGI: 6440 nM
SNB-19 CNS
  GI50: 2920 nM
  TGI: 14400 nM
SNB-75 CNS
  GI50: 291 nM
  TGI: 2130 nM
SW-620 colon
  GI50: 4420 nM
  TGI: 16600 nM
T-47D breast
  GI50: 17.3 nM
  TGI: 7890 nM
TK-10 renal
  GI50: < 10 nM
  TGI: 738 nM
U251 glioblastoma
  GI50: 3520 nM
  TGI: 15700 nM
UACC-257 melanoma
  GI50: 3330 nM
  TGI: 13600 nM
UACC-62 melanoma
  GI50: 2440 nM
  TGI: 11600 nM
UO-31 renal
  GI50: 137 nM
  TGI: 2080 nM
